Measured values reported in paper PMC12670405, “Second-Generation AURKA-Targeting PROTACs: Structural Optimization toward in Vivo Degradation in Neuroblastoma” (Journal of Medicinal Chemistry, 2025).
Where two headings read alike, the source gives them in different places.

Key:
IMR-32 = test: IncuCyte live-cell imaging, antiproliferative effect; type: cell-based; conditions: Homo sapiens, IMR-32, 72 h, read-out: Cell GI50 72h, IMR-32
In short: (§1)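 Cells seeded in 384-well plates (neuroblastoma 1200–5000, HEK293T 600 cells/well), adhered overnight, then compound-treated in duplicate or triplicate; confluency tracked by IncuCyte live-cell imaging. Normalized confluence averaged from 3 experiments; absolute GI50 interpolated from four-parameter variable-slope curves.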

403 nonmutant kinases = test: KINOMEscan scanMAX kinome-wide binding scan, interactions mapped; conditions: for Interactions mapped: total = 403 non-mutant kinases, threshold < 35% of control
Method: The kinome-wide binding assay was performed by Eurofins Discovery using the scanMAX screening platform. More information can be found on the Eurofins Discovery Web site.

HEK293T = test: IncuCyte live-cell imaging, antiproliferative effect; type: cell-based; conditions: Homo sapiens, HEK-293T
In short: as §1

IMR-32 proteome = test: LC-MS/MS proteome profiling; type: cell-based, Homo sapiens
Method: IMR-32 cells were seeded in T-25 flasks at a density of 1.7 million cells/flask and treated the next day with DMSO (negative control), SK5527 (500 nM) or MK-5108 (500 nM) for 3 or 24 h (data for MK-5108 not discussed in this manuscript). Cell pellets were harvested at the respective time points, lysed, and the concentration of the obtained protein lysates measured as previously described. Details on further sample preparation, LC–MS/MS, and data analysis can be found in the Supporting Information. The LC–MS/MS proteomics data have been deposited to the ProteomeXchange Consortium via the PRIDE partner repository with the data set identifier PXD061539.
Supplementary Methods 1 – LC-MS/MS proteomics
From each sample, 100 µg of protein was isolated, the volumes were equalized with water and SDS and TEAB were added to a final concentration of 5% and 50 mM, respectively. Proteins were reduced and alkylated by addition of 10 mM Tris(2-carboxyethyl)phosphine hydrochloride and 40 mM chloroacetamide and incubation for 30 minutes at 25°C in the dark. Phosphoric acid was added to a final concentration of 1.2%, and samples were subsequently diluted 7-fold with binding buffer containing 90% methanol in 100 mM TEAB, pH 7.55. The samples were loaded on the 96-well S-Trap™ plate (Protifi), placed on top of a deepwell plate, and centrifuged for 2 min at 1,500 x g at RT. […]

| SMILES | GI50 (IMR-32) | kinases significantly engaged (in words) (403 nonmutant kinases; 100 nM) | Interactions mapped (403 nonmutant kinases; 100nM) | nonmutant kinases bound in addition to AURKA, out of 403 (403 nonmutant kinases; 1000 nM) | Interactions mapped (403 nonmutant kinases; 1000nM) | GI50 (HEK293T; 72 h, read-out: Cell GI50 72h) | GI50 (HEK293T; 72h, read-out: GI50) | CRBN neosubstrates (GSPT1, CSNK1A1, ZFP91, SALL4, ZNF654, ZNF787, E4F1, PATZ1) (in words) (IMR-32 proteome; IMR-32) | degradation selectivity profile (in words) (IMR-32 proteome; IMR-32, 3h of treatment) |
| --- | --- | --- | --- | --- | --- | --- | --- | --- | --- |
| O=C1CCC(N2C(=O)c3cccc(OCCOCCOCCOCCNC(=O)[C@]4(Cc5cccc(Nc6nccs6)n5)CC[C@@H](Oc5cccc(Cl)c5F)CC4)c3C2=O)C(=O)N1 (stereo partly drawn) [SK2188, reference compound] | 10 nM |  |  |  |  |  |  |  |  |
| Cc1cc(Nc2ccc(F)c(CC3(C(=O)N4CCC(F)(CN5CCN(c6ccc(N7CCC(=O)NC7=O)cn6)CC5)CC4)CCN(Cc4cccc(Cl)c4F)CC3)n2)n[nH]1 [SK5527] |  | only AURKA and TrKA | 2 | 9 | 10 | 408 nM | ~500 nM | not significantly downregulated | AURKA as the only significantly downregulated protein |
